These results are taken from patent US20040014768A1, “Chromenone derivatives and their use for treating diseases in conjunction with 5-hta1receptors and/or dopamine d2 receptors” (priority 2000, published 2004).

The term melting point denotes the temperature of the solid-liquid transition. For the molecule `COc1cc2oc(=O)c(C)c(C)c2cc1OCCN1CCN(c2cccc3[nH]ccc23)CC1.Cl.Cl`, the melting point is 231 to 237 °C. Next, `COc1cc2oc(=O)c(C)c(C)c2cc1OCCN1CCN(c2cccc3[nH]ccc23)CC1` [Example 3, 6-{2-[4-(1H-indol-4-yl)piperazin-1-yl]ethoxy}-7-methoxy-3,4-dimethylchromen-2-one]: 201 to 202 °C. Take `COc1cc2oc(=O)c(C)c(C)c2cc1OCCN1CCN(c2cccc3cccnc23)CC1` [Example 4, 7-methoxy-3,4-dimethyl-6-[2-(4-quinolin-8-ylpiperazin-1-yl)ethoxy]chromen-2-one]: the melting point lay within 164 to 165 °C. As to `COc1cc2oc(=O)c(C)c(C)c2cc1OCCN1CCN(c2cccc3ccc(C)nc23)CC1` [Example 4, 7-methoxy-3,4-dimethyl-6-{2-[4-(2-methylquinolin-8-yl)piperazin-1-yl]-ethoxy}chromen-2-one], the melting point fell in the range of 168 to 170 °C. For the molecule `COc1cc2oc(=O)c(C)c(C)c2cc1OCCCN1CCN(c2cccc3[nH]ccc23)CC1` [Example 5, 6-{3-[4-(1H-indol-4-yl)piperazin-1-yl]propoxy}-7-methoxy-3,4-dimethyl-chromen-2-one], the melting point lay in the range of 193 to 195 °C.

Turning to `COc1cc2oc(=O)c(C)c(C)c2cc1OCCCN1CCN(c2cccc3cccnc23)CC1` [Example 5, 7-methoxy-3,4-dimethyl-6-[3-(4-quinolin-8-ylpiperazin-1-yl)propoxy]-chromen-2-one], the melting point lay in the range of 225 to 228 °C.
